Tests used:
1321N1-hP2X2/3 receptor = target: T1, 1321N1-hP2X2/3 receptor (Homo sapiens, UniProt P56373+Q9UBL9); test: Calcium ion mobility (FLIPR) in cells stably expressing 1321N1-hP2X2/3 receptors; format: cell-based; settings: calcium signal, agonist at EC80
T1 construct: host or cells: 1321N1
T1 sequence (P56373 1-397): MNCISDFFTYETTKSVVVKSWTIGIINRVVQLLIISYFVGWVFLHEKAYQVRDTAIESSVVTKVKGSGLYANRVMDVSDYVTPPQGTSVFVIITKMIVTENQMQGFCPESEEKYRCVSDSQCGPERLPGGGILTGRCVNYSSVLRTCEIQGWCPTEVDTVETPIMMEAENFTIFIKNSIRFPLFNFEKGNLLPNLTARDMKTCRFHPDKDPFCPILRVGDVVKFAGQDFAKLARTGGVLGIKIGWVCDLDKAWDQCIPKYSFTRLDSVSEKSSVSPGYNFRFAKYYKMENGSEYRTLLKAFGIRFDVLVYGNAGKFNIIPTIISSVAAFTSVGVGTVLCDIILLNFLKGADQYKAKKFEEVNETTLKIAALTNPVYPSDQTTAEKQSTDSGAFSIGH
T1 sequence (Q9UBL9 1-471): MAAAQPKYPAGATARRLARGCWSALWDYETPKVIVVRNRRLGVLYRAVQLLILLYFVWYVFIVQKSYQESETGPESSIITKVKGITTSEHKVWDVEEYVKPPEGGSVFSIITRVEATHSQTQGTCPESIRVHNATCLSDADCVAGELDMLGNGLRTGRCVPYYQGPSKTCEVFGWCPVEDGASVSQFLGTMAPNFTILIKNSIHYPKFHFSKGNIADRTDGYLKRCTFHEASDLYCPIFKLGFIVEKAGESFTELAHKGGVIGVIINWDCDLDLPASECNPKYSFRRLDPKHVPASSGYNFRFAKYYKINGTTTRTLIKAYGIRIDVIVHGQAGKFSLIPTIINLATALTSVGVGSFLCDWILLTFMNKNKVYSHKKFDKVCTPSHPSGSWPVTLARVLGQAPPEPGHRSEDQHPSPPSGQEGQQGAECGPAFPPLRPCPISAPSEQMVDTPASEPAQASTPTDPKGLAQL
Protocol: Test Example 2. Determination of the Effect of the Compounds of the Present Invention on Calcium Ion Mobility in Cells Stably Expressing 1321N1-hP2X2/3 Receptors
To determine the inhibitory activity of the compounds on 1321N1-hP2X2/3 receptor.
Stably transfected cell line: 1321N1-hP2X2/3 (supplied by Shanghai ChemPartner Chemical Research Co., Ltd.).
Assay buffer: 1*HBSS+20 mM HEPES;
Cell culture medium: DMEM+10% FBS+75 μg/mL Hygromycin B+150 μg/mL G418;
Plating medium: DMEM+10% DPBS;
0.5*Dye: 10*Dye stock+1.25 Probenecid+1*assay buffer+0.5 U/mL ATP hydrolytic enzyme;
2. The cells were cultured to 70%-90% confluency in the cell culture medium at 37° C., 5% CO2. The medium was discarded, and the cells were added with 2 mL of Versene, and the cells were placed in an incubator at 37° C. for 2 to 5 min. The cells were collected by addition of 10 mL of plating medium and counted. The cells were seeded to the 384-well assay plate by addition of 50 μL solution (a density of 1×10^4 cells/well) to each well, and incubated for 16 to 24 hours (at least overnight).
3. The medium was discarded, and 30 μL of 1× dye was added. The cells were incubated at 37° C. in the dark for 60 min.
4. The compound powder was dissolved in DMSO to obtain a 20 mM stock solution. 180× compound with required concentration was formulated, and diluted in gradient for concentration points.
5. Preparation of compound plate: 500 nL of 180× compound was transferred to the compound plate (source plate for FLIPR) using ECHO. 30 μL of assay buffer was added to each well, and the plate was shaken gently for 20 to 40 minutes.
6. Determination: 15 μL of 3× compound was taken from each well and added to the cell plate. The samples were added by FLIPR instrument, and the calcium signals were detected. After 15 minutes, 22.5 μL of 3× agonist (EC80 concentration) was added to each well and the calcium signals were detected.
The calcium signal values were determined by FLIPR. The ratio of the 340/510 nm wavelength signals to 380/510 nm wavelength signals was used as the calculated results for each sampling time point in the experiment. The calculation of maximum minus minimum was derived from the ratio signal curve.
The percent inhibition rate and ten-point concentration data were fitted to the parametric nonlinear logistic equation by using GraphPad prism to calculate the IC50 values of the compounds.

[1] = Plasma protein binding rate (human); format: in vitro ADME; settings: 37° C. 6 h
Protocol: Test Example 6. Assay of Plasma Protein Binding Rate
The objective of the experiment is to determine the plasma protein binding of the compounds of the Examples in plasma.
The compound of the Example was formulated into 1 mM solution A with DMSO;
The solution A was added to the plasma solution to obtain 5 μM solution B;
1) 200 μL of solution B was added to the inside of the membrane;
2) […] of PBS was added to the outside of the membrane;
3) Incubation in a water bath at 37° C. for 6 h;
4) The sample was diluted and analyzed by mass spectrometry.

[2] = target: T2, CYP450 enzyme isoform 2C19 (Homo sapiens, UniProt P33261); test: CYP enzyme single-point inhibition assay, 2C19; format: in vitro ADME; settings: human liver microsome, single-point method
T2 construct: single-point method using human liver microsome incubation system; from tissue; host or cells: human liver microsomes
Protocol: Test Example 7. CYP Enzyme Single-Point Inhibition Assay
The inhibition of the compounds on CYP450 enzyme isoformwas rapidly predicted by single-point method using human liver microsome incubation system.
2.5 mM NADPH: 4.165 mg of NADPH (reduced nicotinamide adenine dinucleotide phosphate) was weighed, followed by addition of 100 mM phosphate buffer to 2 mL. 0.25 mg/mL microsome solution: 4 mL of 100 mM phosphate buffer was added to 50 μL of 20 mg/mL microsome solution and mixed well.
The test compound of the Example was weighed, diluted to 10 mM with DMSO and then to 100 μM with 100 mM phosphate buffer.
1. 40 μL of liver microsome, 10 μL of substrate and 10 μL of the test compound were added to a 96-well plate and pre-incubated for 3 min.
2. 40 μL of NADPH was added.
3. 300 μL of acetonitrile stop solution containing internal standard was added at 20 min.
4. The sample was centrifuged and injected.

T2 sequence (P33261 whole entry, canonical isoform): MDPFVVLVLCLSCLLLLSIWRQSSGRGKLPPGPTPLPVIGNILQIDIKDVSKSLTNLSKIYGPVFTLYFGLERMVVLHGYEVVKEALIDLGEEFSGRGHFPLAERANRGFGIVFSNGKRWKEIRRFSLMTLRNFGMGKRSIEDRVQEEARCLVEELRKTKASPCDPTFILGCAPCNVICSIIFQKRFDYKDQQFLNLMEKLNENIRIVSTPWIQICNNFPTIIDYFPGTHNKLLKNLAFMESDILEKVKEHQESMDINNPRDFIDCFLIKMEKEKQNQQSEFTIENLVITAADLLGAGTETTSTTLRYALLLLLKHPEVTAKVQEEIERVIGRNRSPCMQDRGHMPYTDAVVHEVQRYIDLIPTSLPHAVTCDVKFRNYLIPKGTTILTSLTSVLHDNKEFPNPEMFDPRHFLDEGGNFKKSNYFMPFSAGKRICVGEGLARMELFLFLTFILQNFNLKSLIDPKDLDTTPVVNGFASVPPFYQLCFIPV

| SMILES | IC50 (1321N1-hP2X2/3 receptor) | fraction unbound at 6 h, 5 μM [1] | IC50 [2] |
| --- | --- | --- | --- |
| CCc1cc2n(CC(=O)Nc3ccc(F)cn3)c(=O)c3ccc(C(F)(F)F)nc3n2n1 [Example 34, 2-(2-Ethyl-5-oxo-8-(trifluoromethyl)pyrazolo[1,5-a]pyrido[3,2-e]pyrimidin-4(5H)-yl)-N-(5-fluoropyridin-2-yl)acetamide] | 25.2 µM | 0.015 | > 100 µM |
| O=C(Cn1c(=O)c2ccc(C(F)(F)F)nc2n2nc(Br)cc12)Nc1ccc(F)cn1 [Example 61-A, 2-(2-bromo-5-oxo-8-(trifluoromethyl)pyrazolo[1,5-a]pyrido[3,2-e]pyrimidin-4(5H)-yl)-N-(5-fluoropyridin-2-yl)acetamide] | 6.36 µM | 0.016 | > 100 µM |
| N#Cc1cc2n(CC(=O)Nc3ccc(F)cn3)c(=O)c3ccc(C(F)(F)F)nc3n2n1 [Example 68, 2-(2-Cyano-5-oxo-8-(trifluoromethyl)pyrazolo[1,5-a]pyrido[3,2-e]pyrimidin-4(5H)-yl)-N-(5-fluoropyridin-2-yl)acetamide] | 5.63 µM | 0.066 | > 100 µM |
| O=C(Cn1c(=O)c2ccc(C(F)(F)F)nc2n2nccc12)Nc1ccc(F)cn1 [Example 78, N-(5-Fluoropyridin-2-yl)-2-(5-oxo-8-(trifluoromethyl)pyrazolo[1,5-a]pyrido[3,2-e]pyrimidin-4(5H)-yl)acetamide] | 4.52 µM | 0.103 | > 100 µM |
| N#Cc1cnn2c3nc(C(F)(F)F)ccc3c(=O)n(CC(=O)Nc3ccc(F)cn3)c12 [Example 80, 2-(3-Cyano-5-oxo-8-(trifluoromethyl)pyrazolo[1,5-a]pyrido[3,2-e]pyrimidin-4(5H)-yl)-N-(5-fluoropyridin-2-yl)acetamide] | 3.04 µM | 0.135 |  |

Reference: patent publication US20230118497A1, “PYRAZOLE-CONTAINING POLYCYCLIC DERIVATIVE INHIBITOR, PREPARATION METHOD THEREFOR AND APPLICATION THEREOF” (Shanghai Hansoh Biomedical Co., Ltd., priority 2019, published 2023)
